Source: patent publication US5618815A, “1,9-bridged thiazolo[3,2-a]quinoline derivatives” (Bayer Aktiengesellschaft, priority 1994, dated 1997)
Values after ≈ are worked out from the molar mass of the structure shown.

Assays:
Type in all cases: cell-based
Enterococcus faecalis = assay: MIC by serial dilution (agar), Enterococcus faecalis; conditions: 20 h, 37° C., about 20 hours
Protocol: (§1) The minimum inhibitory concentrations (MICs) of the compounds according to the invention were determined by serial dilution methods on Iso-Sensitest agar (Oxoid). For each test substance a series of agar plates was, prepared, which plates contained decreasing concentrations of the active compound, with twofold dilution in each case. The agar plates were inoculated with a Multipoint inoculator (Denley). Inoculation was carried out using overnight cultures of the pathogens, which had been diluted beforehand so that each inoculation point contained about 10^4 colony-forming particles. The inoculated agar plates were incubated at 37° C., and the growth of the microorganisms was read off after about 20 hours. The MIC (μg/ml) indicates the lowest concentration of active compound at which no growth-could be perceived with the naked eye. In the table below, the MICs of some of the compounds according to the invention are listed.

Staphylococcus aureus = assay: MIC by serial dilution (agar), Staphylococcus aureus; conditions: 37° C., about 20 hours
Protocol: as §1

Micrococcus luteus = assay: MIC by serial dilution (agar), Micrococcus luteus; conditions: strain 9341, Iso-Sensitest agar, 37° C., about 20 hours
Protocol: as §1

[1] = strain 27 101, Iso-Sensitest agar
[2] = strain 9790, Iso-Sensitest agar
[3] = 20 h, strain 133, Iso-Sensitest agar
[4] = 20 h, strain ICB 25701, Iso-Sensitest agar
[5] = 20 h, strain ICB 25768, Iso-Sensitest agar
[6] = ATCC29123, 20 h, strain ATCC 29123, Iso-Sensitest agar

| MIC (Enterococcus faecalis; [1]) | MIC (Enterococcus faecalis; [2]) | MIC (Staphylococcus aureus; [3]) | MIC (Staphylococcus aureus; [4]) | MIC (Staphylococcus aureus; [5]) | MIC (Staphylococcus aureus; [6]) | MIC (Micrococcus luteus) | SMILES |
| --- | --- | --- | --- | --- | --- | --- | --- |
| 0.125 µg/mL (≈ 0.275 µM) | 0.125 µg/mL (≈ 0.275 µM) | ≤ 0.015 µg/mL | 0.125 µg/mL (≈ 0.275 µM) | 0.25 µg/mL (≈ 0.55 µM) | ≤ 0.015 µg/mL | 0.125 µg/mL (≈ 0.275 µM) | CNC1C=CCC2CN(c3c(F)cc4c(=O)c(C(=O)O)c5scc6n5c4c3N(C)C6)CC21 (stereo not drawn) [Example 3, 7-Fluoro-8-(2-methylamino-8-azabicyclo[4.3.0]non-3-en-8-yl)-5-oxo-9,1-[(N-methylimino)-methano]-5H-thiazolo-[3,2-a]quinoline-4-carboxylic acid] |
| 0.062 µg/mL (≈ 0.136 µM) | 0.062 µg/mL (≈ 0.136 µM) | ≤ 0.015 µg/mL | 0.125 µg/mL (≈ 0.275 µM) | 0.5 µg/mL (≈ 1.1 µM) | ≤ 0.015 µg/mL | 0.062 µg/mL (≈ 0.136 µM) | CC1C=CC(N)C2CN(c3c(F)cc4c(=O)c(C(=O)O)c5scc6n5c4c3N(C)C6)CC12 (stereo not drawn) [Example 5, 8-(2-Amino-5-methyl-8-azabicyclo[4.3.0]non-3-en-8-yl)-7-fluoro-5-oxo-9,1-[(N-methylimino)methano]-5H-thiazolo-[3,2-a]quinoline-4-carboxylic acid] |
| 0.126 µg/mL (≈ 0.269 µM) | 0.125 µg/mL (≈ 0.267 µM) | ≤ 0.015 µg/mL | 0.25 µg/mL (≈ 0.534 µM) | 1 µg/mL (≈ 2.13 µM) | ≤ 0.015 µg/mL | 0.25 µg/mL (≈ 0.534 µM) | CNCC1C=CCC2CN(c3c(F)cc4c(=O)c(C(=O)O)c5scc6n5c4c3N(C)C6)CC12 (stereo not drawn) [Example 7, 7-Fluoro-8-(2-methylamonomethyl-8-azabicyclo[4.3.0]non-3-en-8-yl)-5-oxo-9,1-[(N-methylimino)-methano]-5H-thiazolo-[3,2-a]quinoline-4-carboxylic acid] |
